According to PubChem BioAssay (NCI):
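Method: 48-hour compound exposure of cells in 96-well plates, five concentrations, linear interpolation of endpoints. At the TGI there is no net growth.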

Columns and labels:
Assay in all cases: DTP human tumour cell line panel, 48 h
A549 NSCLC = tested on: A549 NSCLC
M14 melanoma = tested on: M14 melanoma
OVCAR-5 ovarian = tested on: OVCAR-5 ovarian
UACC-62 melanoma = tested on: UACC-62 melanoma
MOLT-4 leukemia = tested on: MOLT-4 leukemia
SN12C renal = tested on: SN12C renal
IGROV1 ovarian = tested on: IGROV1 ovarian
SF-295 CNS = tested on: SF-295 CNS
SK-MEL-2 melanoma = tested on: SK-MEL-2 melanoma
HCC-2998 colon = tested on: HCC-2998 colon
SK-OV-3 ovarian = tested on: SK-OV-3 ovarian
786-0 renal = tested on: 786-0 renal
TK-10 renal = tested on: TK-10 renal
RPMI-8226 leukemia = tested on: RPMI-8226 leukemia
NCI-H522 lung = tested on: NCI-H522 lung
MDA-MB-231 breast = tested on: MDA-MB-231 breast
T-47D breast = tested on: T-47D breast
KM12 colon = tested on: KM12 colon
HOP-92 NSCLC = tested on: HOP-92 NSCLC
NCI-H460 lung = tested on: NCI-H460 lung
OVCAR-4 ovarian = tested on: OVCAR-4 ovarian
BT-549 breast = tested on: BT-549 breast
PC-3 prostate = tested on: PC-3 prostate
SR leukemia = tested on: SR leukemia
HCT-116 colon = tested on: HCT-116 colon
K-562 leukemia = tested on: K-562 leukemia
SF-539 CNS = tested on: SF-539 CNS
RXF 393 renal = tested on: RXF 393 renal
HOP-62 NSCLC = tested on: HOP-62 NSCLC
CCRF-CEM leukemia = tested on: CCRF-CEM leukemia
MDA-N = tested on: MDA-N
SNB-19 CNS = tested on: SNB-19 CNS
U251 CNS = tested on: U251 CNS
EKVX NSCLC = tested on: EKVX NSCLC
A498 renal = tested on: A498 renal
MALME-3M melanoma = tested on: MALME-3M melanoma
HCT-15 colon = tested on: HCT-15 colon
ACHN renal = tested on: ACHN renal
UACC-257 melanoma = tested on: UACC-257 melanoma
LOX IMVI melanoma = tested on: LOX IMVI melanoma
SF-268 CNS = tested on: SF-268 CNS
COLO 205 colon = tested on: COLO 205 colon
SK-MEL-28 melanoma = tested on: SK-MEL-28 melanoma
SW-620 colon = tested on: SW-620 colon
MCF7 breast = tested on: MCF7 breast
NCI-H23 lung = tested on: NCI-H23 lung
SNB-75 CNS = tested on: SNB-75 CNS
SK-MEL-5 melanoma = tested on: SK-MEL-5 melanoma
OVCAR-3 ovarian = tested on: OVCAR-3 ovarian
CAKI-1 renal = tested on: CAKI-1 renal
HS 578T breast = tested on: HS 578T breast
DU-145 prostate = tested on: DU-145 prostate
UO-31 renal = tested on: UO-31 renal
MDA-MB-435 = tested on: MDA-MB-435
NCI-H226 lung = tested on: NCI-H226 lung
HT29 colon = tested on: HT29 colon
NCI/ADR-RES ovarian = tested on: NCI/ADR-RES ovarian
HL-60(TB) leukemia = tested on: HL-60(TB) leukemia
OVCAR-8 ovarian = tested on: OVCAR-8 ovarian

Measured: TGI

CCOC(=O)c1cc2c(ccc3cc(C(=O)OCC)[nH]c32)[nH]1
29.6 µM: SF-539 CNS
41.8 µM: SNB-75 CNS
45.3 µM: SR leukemia
32.4 µM: OVCAR-4 ovarian
25.7 µM: SK-MEL-28 melanoma
19.1 µM: U251 CNS
98.4 µM: SK-MEL-5 melanoma
58.6 µM: HS 578T breast
31.3 µM: 786-0 renal
28.7 µM: MDA-MB-231 breast
66.8 µM: RXF 393 renal
89.1 µM: SN12C renal
59 µM: HOP-62 NSCLC
74.6 µM: SNB-19 CNS
not listed: NCI-H226 lung | HT29 colon | NCI/ADR-RES ovarian | HL-60(TB) leukemia | OVCAR-8 ovarian
> 100 µM: all other assays above

CC(C)=CC1C(COC(=O)c2cc3c(cc2Cl)OCO3)C1(C)C (stereo unspecified)
40.6 µM: SK-MEL-2 melanoma
78 µM: HOP-92 NSCLC
91.2 µM: NCI-H226 lung
46.4 µM: NCI-H522 lung
92.6 µM: HCT-15 colon
90.6 µM: A498 renal
53.8 µM: HS 578T breast
86 µM: U251 CNS
41.6 µM: MALME-3M melanoma
47.6 µM: HL-60(TB) leukemia
65.8 µM: SF-268 CNS
69.7 µM: CAKI-1 renal
78.3 µM: SR leukemia
39.6 µM: SK-MEL-5 melanoma
48.9 µM: RXF 393 renal
81.8 µM: BT-549 breast
65.1 µM: OVCAR-3 ovarian
50 µM: LOX IMVI melanoma
not listed: HCC-2998 colon | SK-OV-3 ovarian | RPMI-8226 leukemia | SF-539 CNS | COLO 205 colon | MCF7 breast | SNB-75 CNS
> 100 µM: all other assays above
